# Where “and” joins values, the source holds several entries; their conditions need not be identical. Equal values may be shown once.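 1) Cells in 96-well plates. 2) Compound, 48 h, 5 concentrations. 3) Linear interpolation between surrounding doses. 4) Unreached endpoint = highest concentration. At the GI50, growth is halved. TGI: concentration producing complete growth inhibition.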
# Key:
# Assay in all cases: NCI anticancer screen, dose series, 48 h
# [1] = system: MDA-MB-468 breast
# [2] = system: SK-OV-3 ovarian
# [3] = system: EKVX NSCLC
# [4] = system: HL-60(TB) leukemia
# [5] = system: RXF 393 renal
# [6] = system: MCF7 breast
# [7] = system: CAKI-1 renal
# [8] = system: UACC-62 melanoma
# [9] = system: NCI-H226 lung
# [10] = system: MDA-MB-435
# [11] = system: OVCAR-8 ovarian
# [12] = system: KM12 colon
# [13] = system: PC-3 prostate
# [14] = system: IGROV1 ovarian
# [15] = system: SK-MEL-28 melanoma
# [16] = system: SK-MEL-2 melanoma
# [17] = system: LOX IMVI melanoma
# [18] = system: UACC-257 melanoma
# [19] = system: MDA-MB-231 breast
# [20] = system: A549 NSCLC
# [21] = system: SF-295 CNS
# [22] = system: 786-0 renal
# [23] = system: SF-268 CNS
# [24] = system: OVCAR-3 ovarian
# [25] = system: HCC-2998 colon
# [26] = system: NCI-H23 lung
# [27] = system: COLO 205 colon
# [28] = system: BT-549 breast
# [29] = system: MALME-3M melanoma
# [30] = system: HOP-92 NSCLC
# [31] = system: SN12C renal
# [32] = system: HCT-116 colon
# [33] = system: SR leukemia
# [34] = system: SNB-19 CNS
# [35] = system: RPMI-8226 leukemia
# [36] = system: U251 CNS
# [37] = system: K-562 leukemia
# [38] = system: NCI-H522 lung
# [39] = system: UO-31 renal
# [40] = system: M14 melanoma
# [41] = system: SK-MEL-5 melanoma
# [42] = system: SW-620 colon
# [43] = system: OVCAR-4 ovarian
# [44] = system: OVCAR-5 ovarian
# [45] = system: MOLT-4 leukemia
# [46] = system: SNB-75 CNS
# [47] = system: HS 578T breast
# [48] = system: SF-539 CNS
# [49] = system: HCT-15 colon
# [50] = system: A498 renal
# [51] = system: CCRF-CEM leukemia
# [52] = system: NCI-H460 lung
# [53] = system: ACHN renal
# [54] = system: HOP-62 NSCLC
# [55] = system: TK-10 renal
# [56] = system: DU-145 prostate
smiles,measurement,setting,value
C#C[C@]1(O)CC[C@H]2[C@@H]3CC=C4c5sc(-c6cccc(O)c6)nc5CC[C@]4(C)[C@H]3CC[C@@]21C,GI50,[1],2.56 µM
same,TGI,[1],6.66 µM
O=C(Cc1ccc(/C=C/C(=O)c2ncc[nH]2)cc1)Nc1ccc(Cl)cc1,GI50,[1],1.68 µM
same,TGI,[1],6.2 µM
COC(=O)c1c2c(c(C)[n+]([O-])c1C)C(=O)C=CC2=O,GI50,[1],0.946 µM
same,TGI,[1],2.71 µM
CN=C1NC(=O)/C(=C/c2ccc3ncccc3c2)S1,GI50,[1],3.26 µM
same,TGI,[1],21.6 µM
O=[n+]1c(CBr)c(CBr)n([O-])c2ccccc21,GI50,[1],7.38 µM
same,TGI,[1],20.4 µM
Cn1c(-c2nonc2N)nc2cnccc21,GI50,[1],> 25 µM
same,TGI,[1],> 25 µM
Cn1cc(C2=C(c3ccc(OC[C@@H](O)CO)cc3)C(=O)NC2=O)c2ccccc21,GI50,[1],> 25 µM
same,TGI,[1],> 25 µM
CS(=O)c1nccc(-c2c(-c3ccc(F)c(OCCc4ccc(F)cc4)c3)nc3sccn23)n1 (stereo unspecified),GI50,[1],1.73 µM
same,TGI,[1],3.76 µM
CCN1CCN(c2nc(NCCNc3ccnc4cc(Cl)ccc34)c3ccccc3n2)CC1,GI50,[1],0.752 µM
same,TGI,[1],2.34 µM
CN1CCN(Cc2ccc(NC(=O)c3cncc(C#Cc4cnc(N)c5ccccc45)c3)cc2C(F)(F)F)CC1,GI50,[1],0.4 µM
same,TGI,[1],0.918 µM
COc1cc2c(c(OC)c1OC)-c1ccc(NCc3ccccc3)c(=O)cc1[C@@H](NC(C)=O)CC2,GI50,[1],0.319 µM
same,TGI,[1],9.13 µM
Fc1ccc(-c2nn(-c3ccccc3)cc2-c2nc3ccccc3o2)cc1,GI50,[1],0.249 µM
same,TGI,[1],0.877 µM
CNC(=O)c1cc(Oc2ccc3c(c2)sc2nc(-c4ccc(N)cc4)cn23)ccn1,GI50,[1],0.304 µM
same,TGI,[1],> 100 µM
CC1=C(CCCOC(=O)NCCCl)C2=C(C)C3(CC3)[C@@](C)(O)C(=O)C2=C1,GI50,[1],1.83 µM
same,TGI,[1],5.08 µM
COc1ccccc1NC(=O)c1ccc(/C=C/C(=O)c2nccn2C)cc1,GI50,[1],0.383 µM
same,TGI,[1],0.848 µM
COc1cccc(-c2nn(-c3ccccc3)cc2-c2ccnc(NCCCNS(=O)(=O)c3cccc(F)c3)c2)c1,GI50,[1],3.49 µM
same,TGI,[1],30.4 µM
CC[n+]1ccc2c(c1)C(=O)c1nccc3c1c-2nc1ccccc13,GI50,[1],0.462 µM
same,TGI,[1],1.18 µM
N#Cc1c(O)c2c(c(O)c1C#N)C(=O)c1ccccc1C2=O,GI50,[1],1.63 µM
same,TGI,[1],6.17 µM
NS(=O)(=O)c1ccc(-n2nc(-c3ccc(Br)cc3)ccc2=O)cc1,GI50,[1],> 10 µM
same,TGI,[1],> 10 µM
OC(c1cccc(C(F)(F)F)c1)c1cnccc1NC1CCCCCC1 (stereo unspecified),GI50,[1],1.22 µM
same,TGI,[1],2.76 µM
CCOC(=O)c1cc(-c2ccc([N+](=O)[O-])cc2)n(-c2ccc(C(=O)O)c(O)c2)c1C,GI50,[1],2.8 µM
same,TGI,[1],10.7 µM
Cc1c(Cl)cccc1Nc1ncccc1C(=O)O,GI50,[1],84.4 µM
same,TGI,[1],> 100 µM
COc1nc2c(cc1S(=O)(=O)c1ccccc1)CCc1c-2cnn1-c1ccccc1Cl,GI50,[1],3.7 µM
same,TGI,[1],> 100 µM
CC1=C2[C@@H](CC1)[C@]1(C)O[C@@](C(C)C)(C[C@H]1OC(=O)[C@H](C)O)[C@H]2OC(=O)/C=C/c1ccccc1,GI50,[1],12.6 µM
same,TGI,[1],28.3 µM
N#Cc1nc(-c2ccc(F)cc2)oc1S(=O)(=O)N1CCOCC1,GI50,[1],1.6 µM
same,TGI,[1],3.27 µM
C[C@@H]1Cc2c([nH]c3ccccc23)[C@@H](c2c(F)cc(/C=C/C(=O)O)cc2F)N1CC(C)(C)F,GI50,[1],16.9 µM
same,TGI,[1],53.5 µM
COc1ccc(CN2CCCC(C(=O)c3ccc(C(F)(F)F)cc3)C2)c(O)c1 (stereo unspecified),GI50,[1],15.7 µM
same,TGI,[1],41.6 µM
O=C(NNc1nc2cc(F)c(F)cc2n2cccc12)c1cccnn1,GI50,[1],0.408 µM and 0.204 µM
same,TGI,[1],1.5 µM and 0.712 µM
ClCc1ccccc1CSc1ncnc2nc[nH]c12,GI50,[1],48.9 µM
same,TGI,[1],> 60 µM
O=C1c2ccccc2C(=O)c2c1ccc1[nH]c(CCl)nc21,GI50,[1],1.94 µM
same,TGI,[1],4.29 µM
O=C(O)CCCc1ccc(N(CCCl)CCCl)cc1,GI50,[1],23.1 µM
same,TGI,[1],99.2 µM
COc1ccc(CNC(=O)COc2ccc(/C=N/Nc3nc4ccccc4s3)cc2)cc1,GI50,[1],1.9 µM
same,TGI,[1],6.09 µM
CSc1ccccc1NC(=O)c1ccc2nnn(/C(C#N)=C/c3ccccn3)c2c1,GI50,[2],18.6 µM
same,TGI,[2],33.8 µM
same,GI50,[3],4.59 µM
same,TGI,[3],16.1 µM
same,GI50,[4],1.9 µM
same,TGI,[4],5.97 µM
same,GI50,[5],1.5 µM
same,TGI,[5],2.86 µM
same,GI50,[6],1.69 µM
same,TGI,[6],3.36 µM
same,GI50,[7],1.55 µM
same,TGI,[7],2.92 µM
same,GI50,[8],1.83 µM
same,TGI,[8],3.84 µM
same,GI50,[9],13.9 µM
same,TGI,[9],32.9 µM
same,GI50,[10],2.07 µM
same,TGI,[10],4.89 µM
same,GI50,[11],3.34 µM
same,TGI,[11],12.7 µM
same,GI50,[12],3.08 µM
same,TGI,[12],10.7 µM
same,GI50,[13],4.09 µM
same,TGI,[13],16.6 µM
same,GI50,[14],2.07 µM
same,TGI,[14],4.46 µM
same,GI50,[15],1.86 µM
same,TGI,[15],3.75 µM
same,GI50,[16],2.25 µM
same,TGI,[16],5.22 µM
same,GI50,[17],1.7 µM
same,TGI,[17],3.19 µM
same,GI50,[18],2.02 µM
same,TGI,[18],5.3 µM
same,GI50,[19],1.99 µM
same,TGI,[19],4.06 µM
same,GI50,[20],10.2 µM
same,TGI,[20],23.6 µM
same,GI50,[21],15.5 µM
same,TGI,[21],28.8 µM
same,GI50,[22],1.82 µM
same,TGI,[22],3.38 µM
same,GI50,[23],11.5 µM
same,TGI,[23],28.7 µM
same,GI50,[24],1.77 µM
same,TGI,[24],3.48 µM
same,GI50,[25],1.78 µM
same,TGI,[25],3.33 µM
same,GI50,[26],1.8 µM
same,TGI,[26],3.52 µM
same,GI50,[27],2.02 µM
same,TGI,[27],3.63 µM
same,GI50,[28],2.32 µM
same,TGI,[28],7.2 µM
same,GI50,[29],1.75 µM
same,TGI,[29],3.29 µM
same,GI50,[30],1.89 µM
same,TGI,[30],7.5 µM
same,GI50,[31],3.87 µM
same,TGI,[31],14.1 µM
same,GI50,[32],1.8 µM
same,TGI,[32],3.46 µM
same,GI50,[33],2.51 µM
same,TGI,[33],9.46 µM
same,GI50,[34],13.4 µM
same,TGI,[34],26.2 µM
same,GI50,[35],3.14 µM
same,TGI,[35],> 100 µM
same,GI50,[36],3.61 µM
same,TGI,[36],12.9 µM
same,GI50,[37],1.84 µM
same,TGI,[37],6.86 µM
same,GI50,[1],1.6 µM
same,TGI,[1],3.32 µM
same,GI50,[38],1.56 µM
same,TGI,[38],3.22 µM
same,GI50,[39],1.55 µM
same,TGI,[39],2.89 µM
same,GI50,[40],2 µM
same,TGI,[40],3.98 µM
same,GI50,[41],3.37 µM
same,TGI,[41],12.1 µM
same,GI50,[42],1.86 µM
same,TGI,[42],3.54 µM
same,GI50,[43],4.22 µM
same,TGI,[43],17.3 µM
same,GI50,[44],1.84 µM
same,TGI,[44],3.91 µM
same,GI50,[45],3.29 µM
same,TGI,[45],9.07 µM
same,GI50,[46],10.1 µM
same,TGI,[46],21.7 µM
same,GI50,[47],3.29 µM
same,TGI,[47],13.3 µM
same,GI50,[48],1.84 µM
same,TGI,[48],3.54 µM
same,GI50,[49],1.67 µM
same,TGI,[49],3.54 µM
same,GI50,[50],15.3 µM
same,TGI,[50],28.6 µM
same,GI50,[51],3 µM
same,TGI,[51],> 100 µM
same,GI50,[52],3.24 µM
same,TGI,[52],11.1 µM
same,GI50,[53],1.78 µM
same,TGI,[53],3.17 µM
same,GI50,[54],15.7 µM
same,TGI,[54],30.9 µM
same,GI50,[55],1.75 µM
same,TGI,[55],3.25 µM
same,GI50,[56],1.93 µM
same,TGI,[56],3.64 µM
